Reference: patent US20110269758A1, “NAPHTHYRIDINONES AS PROTEIN KINASE INHIBITORS” (MERCK PATENT GMBH, priority 2008, published 2011)
Like-named read-outs stand apart in the source and are kept apart here.

Target: T1, Aurora Kinase A (Homo sapiens, UniProt O14965)
T1 construct: full length Aurora A (1-403 amino acids); purchased Carna Biosciences 05-101
T1 sequence (O14965 1-403): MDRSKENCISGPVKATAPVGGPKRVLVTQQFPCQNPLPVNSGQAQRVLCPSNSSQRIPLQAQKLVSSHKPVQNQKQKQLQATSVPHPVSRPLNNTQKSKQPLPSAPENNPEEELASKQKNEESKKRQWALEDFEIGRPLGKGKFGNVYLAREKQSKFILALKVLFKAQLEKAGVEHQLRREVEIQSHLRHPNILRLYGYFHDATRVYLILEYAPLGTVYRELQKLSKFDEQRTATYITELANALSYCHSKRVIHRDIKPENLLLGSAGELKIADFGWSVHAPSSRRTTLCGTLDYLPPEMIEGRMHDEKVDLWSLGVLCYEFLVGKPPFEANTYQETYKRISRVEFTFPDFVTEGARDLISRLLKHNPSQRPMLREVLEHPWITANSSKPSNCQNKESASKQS
Assay: Biochemical enzyme assay for Aurora A activity (Caliper LC3000 / Desktop Profiler mobility shift)
Description: The Aurora assays described here were performed on two Caliper Life Sciences systems, the LC3000 and the Desktop Profiler. These provide data on enzyme activity via measurement of the relative amounts of phosphorylated or unphosphorylated fluorescently labelled substrate peptide at the end of an enzymatic reaction. These different states of peptide are resolved by applying a potential difference across the sample. The presence of a charged phosphate group on the product (as opposed to the substrate) causes a different peptide mobility between the two peptides. This is visualized by excitation of a fluorescent label on the substrate and product peptides and represented as peaks within the analysis software.
In order to measure inhibitor activity of Aurora A inhibitors in the Caliper Life Sciences LC3000, a TTP Mosquito liquid handling instrument was used to place 0.25 μl of an appropriate concentration of inhibitor in 100% DMSO (for a dose response curve calculation) into each well of a 384-well plate.
The reaction was incubated for 90 min at 25° C., and then stopped by the addition of 70 μl of Stop buffer (100 mM HEPES pH 7.5, 0.015% Brij-35, 10 mM EDTA (Sigma, E7889)).
The plate was read on a Caliper LC 3000 in an Off-Chip mobility shift assay format, using the following parameters for a 12-sipper chip: screening pressure −1.8 psi, upstream voltage −2700, downstream voltage −1000. These conditions cause unphosphorylated substrate and phosphorylated product peptide to resolve as separate peaks allowing direct measurement of percentage of conversion of substrate to product.
The Desktop Profiler utilizes the same prinicipal as the LC 3000 for calculating percentage conversion of a substrate to product. Caliper Life Sciences provided proprietary flash frozen pre-made 384 well plates containing selected kinases. Each column in the 384 well plate contained a particular selected kinase. A second plate, the ‘substrate plate’ contained a mix of fluorescently labeled peptide substrate and ATP. These were arranged in columns so that transfer for substrate plate to enzyme plate provided the correct enzyme with the correct substrate/ATP concentration.
Compounds were added to a thawed enzyme plate in the desired format, in single concentrations. Reactions were initiated by transfer of the substrate/ATP mix from the substrate plate. The enzyme plate was incubated for 90 mins at 25° C. The reaction was stopped by addition of 70 μl of Stop Buffer (100 mM HEPES pH 7.5, 0.015% Brij-35, 10 mM EDTA (Sigma, E7889)).
Plates were read in a manner identical to that of the LC3000, and the ratio between substrate and product peaks provided the activity of the enzyme in that well.

[1] = GST-Aurora A, 15 μM ATP, 90 min at 25° C., LC3000 or Desktop Profiler, read-out: Aurora Kinase A IC50

SMILES	IC50 [1] [nM]	IC50 [nM]
CC(C)(C)C(=O)Nc1cc(Cl)ccn1 [Compound 28, N-(4-chloropyridin-2-yl)-2,2-dimethylpropanamide]	1 to 300	–
O=C(Nc1ccc(Nc2ccnc3[nH]c(=O)ccc23)cc1)c1ccc(F)cc1F [Compound 44, 2,4-Difluoro-N-(4-(7-oxo-7,8-dihydro-1,8-naphthyridin-4-yl-amino)phenyl)benzamide]	301 to 600	–
O=C(O)Cc1cc2c(Cl)ccnc2[nH]c1=O [Compound 80, (5-Chloro-2-oxo-1,2-dihydro-1,8-naphthyridin-3-yl)-acetic acid]	1 to 300	–
CN(C)CCNC(=O)c1c(-c2ccccc2)c2c(Nc3ccc(NC(=O)c4ccc(F)c(F)c4)cc3)ccnc2[nH]c1=O [Compound 77, 5-[(3,4-Difluoro-benzoylamino)-phenylamino]-2-oxo-4-phenyl-1,2-dihydro-1,8-naphthyridine-3-carboxylic acid (2-dimethylamino-ethyl)-amide]	> 1000	–
CC(C)(C)OC(=O)c1c(-c2ccccc2)c2c(Cl)ccnc2[nH]c1=O [Compound 75, 5-Chloro-2-oxo-4-phenyl-1,2-dihydro-1,8-naphthyridi-3-carboxylic acid tert-butyl ester]	1 to 300	–
O=C(Nc1ccc(Nc2ccnc3[nH]c(=O)c(C(=O)NCCO)c(-c4ccccc4)c23)cc1)c1ccc(F)c(F)c1 [Compound 78, 5-[(3,4-Difluoro-benzoylamino)-phenylamino]-2-oxo-4-phenyl-1,2-dihydro-1,8-naphthyridine-3-carboxylic acid (2-hydroxy-ethyl)-amide]	1 to 300	–
O=C(Nc1ccc(Nc2ccnc3[nH]c(=O)c([N+](=O)[O-])cc23)cc1)c1ccc(F)cc1C(F)(F)F [Compound 88, 4-Fluoro-2-trifluoromethyl-N-(4-(6-nitro-7-oxo-7,8-dihydro-1,8-naphthyridin-4-yl-amino)phenyl)benzamide]	1 to 300	–
O=C(Nc1ccc(Nc2ccnc3[nH]c(=O)c(C(=O)NC[C@H](O)CO)c(-c4ccccc4)c23)cc1)c1ccc(F)c(F)c1 [Compound 79, 5-[(3,4-Difluoro-benzoylamino)-phenylamino]-2-oxo-4-phenyl-1,2-dihydro-1,8-naphthyridine-3-carboxylic acid ((S)2,3-dihydroxypropyl)-amide]	> 1000	–
O=C(Nc1ccc(Nc2ccnc3[nH]c(=O)ccc23)cc1)c1ccc(F)c(F)c1 [Compound 42, 3,4-Difluoro-N-(4-(7-oxo-7,8-dihydro-1,8-naphthyridin-4-yl-amino)phenyl)benzamide]	1 to 300	–
O=C(Nc1ccc(Nc2ccnc3[nH]c(=O)ccc23)cc1)c1cc(F)cc(F)c1 [Compound 43, 3,5-Difluoro-N-(4-(7-oxo-7,8-dihydro-1,8-naphthyridin-4-yl-amino)phenyl)benzamide]	1 to 300	–
CC(C)(C)C(=O)Nc1nccc(Cl)c1C=O [Compound 29, N-(4-chloro-3-formylpyridin-2-yl)-2,2-dimethylpropanamide]	301 to 600	–
O=C(Nc1ccc(Nc2ccnc3[nH]c(=O)ccc23)cc1)C1CCCCC1 [Compound 45, N-(4-(7-oxo-7,8-dihydro-1,8-naphthyridin-4-yl-amino)phenyl)cyclohexanecarboxamide]	1 to 300	–
O=C(Nc1ccccc1Nc1ccnc2[nH]c(=O)ccc12)c1ccccc1 [Compound 47, N-(2-(7-oxo-7,8-dihydro-1,8-naphthyridin-4-ylamino)phenyl)benzamide]	1 to 300	–
CC(C)(C)OC(=O)CC(O)c1c(Cl)ccnc1NC(=O)C(C)(C)C (stereo not drawn) [Compound 30, Tert-butyl 3-{4-chloro-2-[(2,2-dimethylpropanoyl)amino]pyridin-3-yl}-3-hydroxypropanoate]	1 to 300	–
CN(C)C1CCN(c2ccc3c(Nc4ccc(C(=O)Nc5ccccc5)cc4)ccnc3n2)CC1 [Compound 64]	1 to 300	–
O=C(Nc1ccc(Nc2ccnc3[nH]c(=O)ccc23)cc1)c1ccc(OC(F)(F)F)cc1 [Compound 56, 4-Trifluoromethoxy-N-(4-(7-oxo-7,8-dihydro-1,8-naphthyridin-4-yl-amino)phenyl)benzamide]	601 to 1000	–

More lines, now with the values ahead:

IC50 [1] [nM]	IC50 [nM]	SMILES
1 to 300	–	Nc1ccc(NC(=O)c2ccc(Cl)cc2Cl)cc1 [Compound 27, N-(4-Aminophenyl)-2,4-dichloro-benzamide]
1 to 300	–	O=C(Nc1ccc(Nc2ccnc3nc(Cl)ccc23)cc1)c1ccccc1 [Compound 63, N-(4-(7-Chloro-1,8-naphthyridin-4-yl-amino)phenyl)benzamide]
1 to 300	–	O=C(Nc1ccc(Nc2ccnc3[nH]c(=O)ccc23)cc1)c1cccc(F)c1 [Compound 35, 3-Fluoro-N-(4-(7-oxo-7,8-dihydro-1,8-naphthyridin-4-yl-amino)phenyl)benzamide]
1 to 300	–	Nc1ccc(NC(=O)c2ccc(Cl)cc2)cc1 [Compound 20, N-(4-Aminophenyl)-4-chloro-benzamide]
1 to 300	–	Nc1ccc(NC(=O)c2c(Cl)cccc2Cl)cc1 [Compound 25, N-(4-Aminophenyl)-2,6-dichloro-benzamide]
1 to 300	–	Nc1ccc(NC(=O)c2ccc(F)cc2C(F)(F)F)cc1 [Compound 8, N-(4-Aminophenyl)-4-fluoro-2-trifluoromethyl-benzamide]
1 to 300	–	Nc1ccc(NC(=O)c2ccc(Cl)c(Cl)c2)cc1 [Compound 26, N-(4-Aminophenyl)-3,4-dichloro-benzamide]
> 1000	–	Cc1cccc(C(=O)Nc2ccc(N)cc2)c1 [Compound 23, N-(4-Aminophenyl)-3-methyl-benzamide]
> 1000	–	Nc1ccc(NC(=O)c2cccc3ccccc23)cc1 [Compound 24, Naphthalene-1-carboxylic acid (4-aminophenyl)-amide]
1 to 300	–	Cc1ccc(C(=O)Nc2ccc(N)cc2)cc1 [Compound 17, N-(4-Aminophenyl)-4-methyl-benzamide]
1 to 300	–	Nc1nccc(Cl)c1C(=O)c1ccccc1 [Compound 74, (2-Amino-4-chloro-pyridin-3-yl)-phenyl-methanone]
> 1000	–	O=C(Nc1ccc(Nc2ncnc3[nH]c(=O)c(C(=O)O)cc23)cc1)c1ccccc1 [Compound 85, 4-(4-Benzoylamino-phenylamino)-7-oxo-7,8-dihydro-pyrido[2,3-d]pyrimidine-6-carboxylic acid]
1 to 300	–	O=C(Nc1ccc(Nc2ccnc3[nH]c(=O)ccc23)cc1)c1c(F)cccc1F [Compound 41, 2,6-Difluoro-N-(4-(7-oxo-7,8-dihydro-1,8-naphthyridin-4-yl-amino)phenyl)benzamide]
1 to 300	–	Nc1ccc(NC(=O)c2cc(F)cc(C(F)(F)F)c2)cc1 [Compound 19, N-(4-Aminophenyl)-3-fluoro-5-trifluoromethyl-benzamide]
> 1000	–	O=C(Nc1ccccc1)c1ccc(Nc2ccnc3[nH]c(=O)ccc23)cc1 [Compound 48, 4-(7-Oxo-7,8-dihydro-1,8-naphthyridin-4-ylamino)-N-phenyl-benzamide]
601 to 1000	–	Cc1ccccc1C(=O)Nc1ccc(N)cc1 [Compound 22, N-(4-Aminophenyl)-2-methyl-benzamide]
1 to 300	–	O=C(Nc1ccc(Nc2ccnc3[nH]c(=O)ccc23)cc1)c1ccc(F)cc1 [Compound 36, 4-Fluoro-N-(4-(7-oxo-7,8-dihydro-1,8-naphthyridin-4-yl-amino)phenyl)benzamide]
–	1 to 300	COc1ccccc1C(=O)Nc1ccc(N)cc1 [Compound 16, N-(4-Aminophenyl)-2-methoxy-benzamide]
1 to 300	–	Nc1ccc(NC(=O)c2ccc(F)cc2F)cc1 [Compound 12, N-(4-Aminophenyl)-2,4-difluoro-benzamide]
1 to 300	–	O=C(Nc1ccc(Nc2ccnc3[nH]c(=O)ccc23)cc1)c1ccccc1 [Compound 32, N-(4-(7-oxo-7,8-dihydro-1,8-naphthyridin-4-yl-amino)phenyl)benzamide]
